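Briefly, cells in 96-well plates were exposed to five compound concentrations for 48 h, and endpoints were estimated by linear interpolation. TGI: concentration producing complete growth inhibition.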
What was measured:
Assay in all cases: NCI anticancer screen, dose series, 48 h
[1] = tested on: 786-0 renal
[2] = tested on: A498 renal
[3] = tested on: A549 NSCLC
[4] = tested on: ACHN renal
[5] = tested on: CAKI-1 renal
[6] = tested on: CCRF-CEM leukemia
[7] = tested on: COLO 205 colon
[8] = tested on: DLD-1 colon
[9] = tested on: DMS 114 small cell lung
[10] = tested on: DMS 273 small cell lung
[11] = tested on: EKVX NSCLC
[12] = tested on: HCC-2998 colon
[13] = tested on: HCT-116 colon
[14] = tested on: HCT-15 colon
[15] = tested on: HL-60(TB) leukemia
[16] = tested on: HOP-62 NSCLC
[17] = tested on: HOP-92 NSCLC
[18] = tested on: HT29 colon
[19] = tested on: IGROV1 ovarian
[20] = tested on: K-562 leukemia
[21] = tested on: KM12 colon
[22] = tested on: KM20L2 colon
[23] = tested on: LOX IMVI melanoma
[24] = tested on: LXFL 529 NSCLC
[25] = tested on: M14 melanoma
[26] = tested on: M19-MEL melanoma
[27] = tested on: MALME-3M melanoma
[28] = tested on: MOLT-4 leukemia
[29] = tested on: NCI-H226 lung
[30] = tested on: NCI-H23 lung
[31] = tested on: NCI-H460 lung
[32] = tested on: NCI-H522 lung
[33] = tested on: OVCAR-3 ovarian
[34] = tested on: OVCAR-4 ovarian
[35] = tested on: OVCAR-5 ovarian
[36] = tested on: OVCAR-8 ovarian
[37] = tested on: RPMI-8226 leukemia
[38] = tested on: RXF 393 renal
[39] = tested on: SF-268 CNS
[40] = tested on: SF-295 CNS
[41] = tested on: SF-539 CNS
[42] = tested on: SK-MEL-2 melanoma
[43] = tested on: SK-MEL-28 melanoma
[44] = tested on: SK-MEL-5 melanoma
[45] = tested on: SK-OV-3 ovarian
[46] = tested on: SN12C renal
[47] = tested on: SNB-19 CNS
[48] = tested on: SNB-75 CNS
[49] = tested on: SNB-78 CNS
[50] = tested on: SW-620 colon
[51] = tested on: TK-10 renal
[52] = tested on: U251 CNS
[53] = tested on: UACC-257 melanoma
[54] = tested on: UACC-62 melanoma
[55] = tested on: UO-31 renal
[56] = tested on: XF 498 CNS

Clc1ccc(C2=Nc3ccccc3SC(c3ccc(Cl)c(Cl)c3)C2)c(Cl)c1 (stereo unspecified)
TGI [1]: 27.6 µM
TGI [2]: 37.4 µM
TGI [3]: 43.6 µM
TGI [4]: 27.6 µM
TGI [5]: 29.6 µM
TGI [6]: 17.1 µM
TGI [7]: 35 µM
TGI [8]: 25.6 µM
TGI [9]: 27.1 µM
TGI [10]: 30 µM
TGI [11]: 33.6 µM
TGI [12]: 27.8 µM
TGI [13]: 23.4 µM
TGI [14]: 27.3 µM
TGI [15]: 24.8 µM
TGI [16]: 18.2 µM
TGI [17]: 30.1 µM
TGI [18]: 28.5 µM
TGI [19]: 30.7 µM
TGI [20]: 22.3 µM
TGI [21]: 24.2 µM
TGI [22]: 39.7 µM
TGI [23]: 21.6 µM
TGI [24]: 29.2 µM
TGI [25]: 30.1 µM
TGI [26]: 32.2 µM
TGI [27]: 29.9 µM
TGI [28]: 18.1 µM
TGI [29]: 37.4 µM
TGI [30]: 34.2 µM
TGI [31]: 34.4 µM
TGI [32]: 28 µM
TGI [33]: 26.1 µM
TGI [34]: 36.6 µM
TGI [35]: 32.1 µM
TGI [36]: 31.1 µM
TGI [37]: 6.01 µM
TGI [38]: 30.5 µM
TGI [39]: 19.9 µM
TGI [40]: 17 µM
TGI [41]: 32.9 µM
TGI [42]: 31.5 µM
TGI [43]: 30.3 µM
TGI [44]: 32.3 µM
TGI [45]: 52.1 µM
TGI [46]: 33.1 µM
TGI [47]: 40 µM
TGI [48]: 34.6 µM
TGI [49]: 35.5 µM
TGI [50]: 18.9 µM
TGI [51]: 36.9 µM
TGI [52]: 32 µM
TGI [53]: 41.1 µM
TGI [54]: 29.4 µM
TGI [55]: 28.1 µM
TGI [56]: 26 µM
